Assay results reported in ChEMBL document CHEMBL3228005, “Inhibition of rat passive cutaneous anaphylaxis by 3-(tetrazol-5-yl)quinolines” (1979).

Columns and labels:
Type in all cases: functional
[1] = system: Rattus norvegicus; experiment: Inhibition of passive cutaneous anaphylaxis in po dosed Sprague-Dawley rat; details: read-out: MED
[2] = system: Rattus norvegicus; experiment: Inhibition of passive cutaneous anaphylaxis in ip dosed Sprague-Dawley rat; details: for minimal effective dose: read-out: MED
[3] = system: Rattus norvegicus; experiment: Inhibition of passive cutaneous anaphylaxis in po dosed Sprague-Dawley rat administered with ball-milled suspension; details: read-out: MED
[4] = system: Rattus norvegicus; experiment: Ratio of disodium cromoglycate MED to compound MED for inhibition of passive cutaneous anaphylaxis in ip dosed Sprague-Dawley rat
[5] = system: Rattus norvegicus; experiment: Inhibition of passive cutaneous anaphylaxis in ip dosed Sprague-Dawley rat administered with ball-milled suspension; details: read-out: MED
[6] = system: Rattus norvegicus; experiment: Ratio of doxantrazole MED to compound MED for inhibition of passive cutaneous anaphylaxis in po dosed Sprague-Dawley rat

Row | Structure (SMILES) | minimal effective dose [1] | minimal effective dose [2] | also measured
1 | O=C(O)c1cnc2c(F)cccc2c1O | > 100 mg/kg |  | 
2 | COc1cccc2c(O)c(C(=O)O)cnc12 | > 100 mg/kg | 10 mg/kg | 
3 | O=C(O)c1cnc2ccccc2c1 | 150 mg/kg | 50 mg/kg | 
4 | Cc1cc(F)c2[nH]cc(-c3nn[nH]n3)c(=O)c2c1.O | > 10 mg/kg | 2.5 mg/kg | 
5 | Cl.O=C(O)c1cnc2ccc(F)cc2c1 | > 50 mg/kg |  | 
6 | O=C(O)c1cnc2ccc(C(F)(F)F)cc2c1 | > 50 mg/kg | > 25 mg/kg | 
7 | COc1ccc2ncc(C(=O)O)cc2c1 |  | > 5 mg/kg | 
8 | O=C(O)c1cnc2ccc(OC3CCCCC3)cc2c1 |  | > 25 mg/kg | 
9 | O=C(O)c1cnc2ccc(C3CCCCC3)cc2c1 |  | > 25 mg/kg | 
10 | O=C(O)c1cnc2cc(C(F)(F)F)ccc2c1 | > 25 mg/kg | > 25 mg/kg | 
11 | COc1ccc2cc(C(=O)O)cnc2c1.Cl |  | > 25 mg/kg | 
12 | O.O=C(O)c1cnc2c(F)cccc2c1 | 150 mg/kg | > 25 mg/kg | 
13 | O=C(O)c1cnc2c(Cl)cccc2c1 | 150 mg/kg | 25 mg/kg | 
14 | O=C(O)c1cnc2c(C(F)(F)F)cccc2c1 | 75 mg/kg | 50 mg/kg | 
15 | Cc1cccc2cc(C(=O)O)cnc12 | > 25 mg/kg | > 50 mg/kg | 
16 | CCc1cccc2cc(C(=O)O)cnc12 | 75 mg/kg | > 50 mg/kg | 
17 | COc1cccc2cc(C(=O)O)cnc12 | 150 mg/kg | 25 mg/kg | 
18 | CCOc1cccc2cc(C(=O)O)cnc12 | > 50 mg/kg | > 25 mg/kg | 
19 | COc1ccc(OC)c2ncc(C(=O)O)cc12 | > 50 mg/kg | > 25 mg/kg | 
20 | O=C(O)c1cnc2c(F)cc(F)cc2c1 |  | 25 mg/kg | 
21 | Cc1ccc2cc(C(=O)O)cnc2c1C | 50 mg/kg | 25 mg/kg | 
22 | O=C(O)c1cnc2c3c(ccc2c1)CCCC3 | 50 mg/kg | 25 mg/kg | 
23 | O=C(O)c1cnc2c(ccc3ccccc32)c1 | 50 mg/kg | 25 mg/kg | 
24 | c1ccc2ncc(-c3nn[nH]n3)cc2c1 | 25 mg/kg | 10 mg/kg | 

Row | Structure (SMILES) | minimal effective dose [1] | minimal effective dose [2] | also measured
25 | Fc1ccc2ncc(-c3nn[nH]n3)cc2c1 | 50 mg/kg | < 25 mg/kg | 
26 | COc1ccc2ncc(-c3nn[nH]n3)cc2c1.O | > 25 mg/kg | 10 mg/kg | 
27 | Cl.c1cc2ncc(-c3nn[nH]n3)cc2cc1OC1CCCCC1 | 10 mg/kg | 5 mg/kg | 
28 | CCCCc1ccc2ncc(-c3nn[nH]n3)cc2c1 | > 25 mg/kg | 5 mg/kg | 
29 | Cl.c1nc2ccc(C3CCCCC3)cc2cc1-c1nn[nH]n1 | > 25 mg/kg | 5 mg/kg | 
30 | FC(F)(F)c1ccc2cc(-c3nn[nH]n3)cnc2c1 | 25 mg/kg | < 10 mg/kg | 
31 | COc1ccc2cc(-c3nn[nH]n3)cnc2c1.Cl | > 25 mg/kg | 5 mg/kg | 
32 | Fc1cccc2cc(-c3nn[nH]n3)cnc12 |  | > 10 mg/kg | 
33 | FC(F)(F)c1cccc2cc(-c3nn[nH]n3)cnc12 | 25 mg/kg | < 25 mg/kg | 
34 | Cc1cccc2cc(-c3nn[nH]n3)cnc12 | 25 mg/kg | < 25 mg/kg | 
35 | CCc1cccc2cc(-c3nn[nH]n3)cnc12 | 5 mg/kg | 2.5 mg/kg | 
36 | COc1cccc2cc(-c3nn[nH]n3)cnc12 | > 25 mg/kg | 2.5 mg/kg | 
37 | COc1ccc(OC)c2ncc(-c3nn[nH]n3)cc12 | > 50 mg/kg | 5 mg/kg | 
38 | Fc1cc(F)c2ncc(-c3nn[nH]n3)cc2c1 | > 50 mg/kg | 10 mg/kg | 
39 | Cc1ccc2cc(-c3nn[nH]n3)cnc2c1C | 25 mg/kg | 1 mg/kg | 
40 | c1nc2c3c(ccc2cc1-c1nn[nH]n1)CCCC3 | 5 mg/kg | 5 mg/kg | 
41 | c1ccc2c(c1)ccc1cc(-c3nn[nH]n3)cnc12 | 10 mg/kg | 5 mg/kg | 
42 | Cc1cc([N+](=O)[O-])c2cc(-c3nn[nH]n3)cnc2c1C | 25 mg/kg | 2.5 mg/kg | 
43 | O.O=c1c(-c2nn[nH]n2)c[nH]c2ccccc12 | > 20 mg/kg | 1.25 mg/kg | 
44 | O.O=c1c(-c2nn[nH]n2)c[nH]c2ccc(F)cc12 | > 20 mg/kg | 1.25 mg/kg | 
45 | O=c1c(-c2nn[nH]n2)c[nH]c2ccc(Cl)cc12 | > 25 mg/kg | > 10 mg/kg | 
46 | Cc1ccc2[nH]cc(-c3nn[nH]n3)c(=O)c2c1.O | > 25 mg/kg | 1.25 mg/kg | 
47 | CCc1ccc2[nH]cc(-c3nn[nH]n3)c(=O)c2c1.O | 0.625 mg/kg | < 5 mg/kg | minimal effective dose [3]: 0.156 mg/kg
48 | CCc1ccc2c(=O)c(-c3nn[nH]n3)c[nH]c2c1.O | > 10 mg/kg | < 5 mg/kg | 

Row | Structure (SMILES) | minimal effective dose [1] | minimal effective dose [2] | also measured
49 | COc1ccc2c(=O)c(-c3nn[nH]n3)c[nH]c2c1 |  | 10 mg/kg | 
50 | O=c1c(-c2nn[nH]n2)c[nH]c2c(F)cccc12 | 10 mg/kg | 0.625 mg/kg | minimal effective dose [3]: 2.5 mg/kg
51 | O=c1c(-c2nn[nH]n2)c[nH]c2c(Cl)cccc12 |  | 0.078 mg/kg | Ratio [4]: 33; minimal effective dose [5]: 0.156 mg/kg; Ratio [6]: 32
52 | O=c1c(-c2nn[nH]n2)c[nH]c2c(Br)cccc12 | > 10 mg/kg | > 5 mg/kg | 
53 | O=c1c(-c2nn[nH]n2)c[nH]c2c(C(F)(F)F)cccc12 | > 25 mg/kg | 0.156 mg/kg | 
54 | Cc1cccc2c(=O)c(-c3nn[nH]n3)c[nH]c12 | > 10 mg/kg | > 5 mg/kg | 
55 | CCc1cccc2c(=O)c(-c3nn[nH]n3)c[nH]c12 | > 25 mg/kg | 0.312 mg/kg | 
56 | CC(C)c1cccc2c(=O)c(-c3nn[nH]n3)c[nH]c12 | 10 mg/kg | 1.25 mg/kg | 
57 | COc1cccc2c(=O)c(-c3nn[nH]n3)c[nH]c12.O | 0.312 mg/kg | 0.15 mg/kg | 
58 | CC(C)Oc1cccc2c(=O)c(-c3nn[nH]n3)c[nH]c12 | 1.25 mg/kg | 0.078 mg/kg | 
59 | CSc1cccc2c(=O)c(-c3nn[nH]n3)c[nH]c12 | 25 mg/kg | 10 mg/kg | 
60 | CS(=O)(=O)c1cccc2c(=O)c(-c3nn[nH]n3)c[nH]c12 | > 25 mg/kg | 10 mg/kg | 
61 | O=c1c(-c2nn[nH]n2)c[nH]c2c(F)ccc(F)c12 | 10 mg/kg | > 0.156 mg/kg | 
62 | O=c1c(-c2nn[nH]n2)c[nH]c2c(Cl)ccc(Cl)c12 | 0.312 mg/kg | > 0.156 mg/kg | 
63 | O.O=c1c(-c2nn[nH]n2)c[nH]c2c(Cl)cc(Cl)cc12 | > 10 mg/kg | > 0.156 mg/kg | 
64 | O=c1c(-c2nn[nH]n2)c[nH]c2c(Cl)c(Cl)ccc12 | > 10 mg/kg | > 0.156 mg/kg | 
65 | COc1ccc(OC)c2c(=O)c(-c3nn[nH]n3)c[nH]c12 | > 10 mg/kg | 1.25 mg/kg | 
66 | O.O=c1c(-c2nn[nH]n2)c[nH]c2c3c(ccc12)CCCC3 | > 25 mg/kg |  | 
67 | COc1ccc2c(O)c(C(=O)O)cnc2c1 | > 100 mg/kg | > 50 mg/kg | 
68 | COc1ccc2ncc(C(=O)O)c(O)c2c1 | > 100 mg/kg | > 50 mg/kg | 
69 | O=C(O)c1cnc2c(Cl)cccc2c1O | > 100 mg/kg |  | 
70 | O=C([O-])c1cc(=O)c2c(OCC(O)COc3cccc4oc(C(=O)[O-])cc(=O)c34)cccc2o1.[Na+].[Na+] [CROMOLYN SODIUM] |  |  | ED50 [2]: 2.6 mg/kg
71 | O=C1c2ccccc2S(=O)(=O)c2cc(-c3nn[nH]n3)ccc21 [DOXANTRAZOLE] | 5 mg/kg |  | 
